The target of the experiment is T1, human macrophage elastase (HME/hMMP-12) (Homo sapiens, UniProt P39900).
T1 construct: purchased R&D Systems 917-MP
T1 sequence (P39900 106-470): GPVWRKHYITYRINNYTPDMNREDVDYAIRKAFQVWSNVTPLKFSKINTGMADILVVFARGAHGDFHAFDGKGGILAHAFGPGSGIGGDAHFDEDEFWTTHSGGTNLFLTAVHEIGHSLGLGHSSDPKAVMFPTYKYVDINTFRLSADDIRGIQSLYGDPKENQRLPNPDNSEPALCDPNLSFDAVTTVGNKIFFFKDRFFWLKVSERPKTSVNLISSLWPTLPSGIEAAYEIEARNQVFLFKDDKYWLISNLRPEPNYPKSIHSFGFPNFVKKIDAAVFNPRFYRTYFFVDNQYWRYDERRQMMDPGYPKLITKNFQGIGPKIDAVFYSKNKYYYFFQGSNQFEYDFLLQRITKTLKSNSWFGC
Description: In vitro HME inhibition test (standard or high-sensitivity). It counts as biochemical. Conditions: in some cases mean values, rounded to two significant figures. An outline of the steps: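 Autoactivated HME (0.5 nM; high-sensitivity format 0.05 nM, ~16 h) with 5 μM quenched Mca-PLGLEEA-Dap(Dnp)-NH2 substrate in HEPES pH 7.4, NaCl, CaCl2, ZnCl2, EDTA, Brij buffer, 2 h at 37° C. Fluorescence at ex 323/em 393 nm; IC50 from signal versus concentration.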
In general, IC50 refers to the concentration at which inhibition is half-maximal. The low end stands for higher potency, the high end for lower potency. The compound `O=C(CC(CCn1nnc2ccccc2c1=O)C(=O)O)c1cc2cc(OCCCc3cccs3)ccc2o1` (racemic) [Example 46, (+/−)-4-Oxo-2-[2-(4-oxo-1,2,3-benzotriazin-3(4H)-yl)ethyl]-4-{5-[3-(2-thienyl)propoxy]-1-benzofur-2-yl}butanoic acid] came in with an IC50 of 1.9 nM.

Take `CC(C)CCCCOc1ccc2oc(C(=O)CC(CCn3nnc4ccccc4c3=O)C(=O)O)cc2c1` (racemic) [Example 41, (+/−)-4-{5-[(5-Methylhexyl)oxy]-1-benzofur-2-yl}-4-oxo-2-[2-(4-oxo-1,2,3-benzotriazin-3(4H)-yl)ethyl]butanoic acid]: the half-maximal inhibitory concentration (IC50) was determined as 3.9 nM.

`O=C(CC(CCn1nnc2ccccc2c1=O)C(=O)O)c1cc2ccc(OCC3CCCO3)cc2s1` (racemic) [Example 117, (+/−)-4-Oxo-2-[2-(4-oxo-1,2,3-benzotriazin-3(4H)-yl)ethyl]-4-{6-[tetrahydrofuran-2-ylmethoxy]-1-benzothiophen-2-yl}butanoic acid] yielded an IC50 of 5.9 nM.

`O=C(CC(CCn1nnc2ccccc2c1=O)C(=O)O)c1cc2cc(OCc3ccc(Cl)c(Cl)c3)ccc2o1` (racemic) [Example 25, (+/−)-4-{5-[(3,4-Dichlorobenzyl)oxy]-1-benzofur-2-yl}-4-oxo-2-[2-(4-oxo-1,2,3-benzotriazin-3(4H)-yl)ethyl]butanoic acid] returned an IC50 of 0.2 nM.

The compound `CC(C)COc1ccc2c(C(=O)CC(CCn3nnc4ccccc4c3=O)C(=O)O)coc2c1` (single isomer, unassigned; (-)) [Example 106, (−)-4-(6-Isobutoxy-1-benzofur-3-yl)-4-oxo-2-[2-(4-oxo-1,2,3-benzotriazin-3(4H)-yl)ethyl]butanoic acid] displayed a half-maximal inhibitory concentration (IC50) of 31 nM.

`O=C(CC(CCn1nnc2ccccc2c1=O)C(=O)O)c1cc2cc(OCc3ccccc3)ccc2o1` (single isomer, unassigned; (-)) [Example 29, (−)-4-[5-(Benzyloxy)-1-benzofur-2-yl]-4-oxo-2-[2-(4-oxo-1,2,3-benzotriazin-3(4H)-yl)ethyl]butanoic acid] yielded an IC50 of 770 nM.

For `O=C(CC(CCn1nnc2ccccc2c1=O)C(=O)O)c1cc2cc(OCCCC(F)(F)F)ccc2o1` (racemic) [Example 11, (+/−)-4-Oxo-2-[2-(4-oxo-1,2,3-benzotriazin-3(4H)-yl)ethyl]-4-[5-(4,4,4-trifluorobutoxy)-1-benzofur-2-yl]butanoic acid], the concentration for half-maximal inhibition (IC50) amounted to 4.3 nM.

On to `O=C(CC(CCn1nnc2ccccc2c1=O)C(=O)O)c1noc2cc(OCCC3CCCC3)ccc12` (racemic) [Example 151, (+/−)-4-[6-(2-Cyclopentylethoxy)-1,2-benzoxazol-3-yl]-4-oxo-2-[2-(4-oxo-1,2,3-benzotriazin-3(4H)-yl)ethyl]butanoic acid], for which half-maximal inhibition (IC50) was put at 0.27 nM.

`COc1ccc(CCOc2ccc3oc(C(=O)CC(CCn4nnc5ccccc5c4=O)C(=O)O)cc3c2)cc1` (racemic) [Example 3, (+/−)-4-{5-[2-(4-Methoxyphenyl)ethoxy]-1-benzofur-2-yl}-4-oxo-2-[2-(4-oxo-1,2,3-benzotriazin-3(4H)-yl)ethyl]butanoic acid]: the IC50 is 4.1 nM.

Compound `O=C(CC(CCn1nnc2ccccc2c1=O)C(=O)O)c1cc2ccc(OCC3CC3)cc2s1` (single isomer, unassigned; (-)) [Example 113, (−)-4-[6-(Cyclopropylmethoxy)-1-benzothiophen-2-yl]-4-oxo-2-[2-(4-oxo-1,2,3-benzotriazin-3(4H)-yl)ethyl]butanoic acid] displayed a concentration for half-maximal inhibition (IC50) of 4300 nM.

The compound `O=C(CC(CCn1nnc2ccccc2c1=O)C(=O)O)c1coc2cc(OCC3CCCCC3)ccc12` (single isomer, unassigned; (-)) [Example 83, (−)-4-[6-(Cyclohexylmethoxy)-1-benzofur-3-yl]-4-oxo-2-[2-(4-oxo-1,2,3-benzotriazin-3(4H)-yl)ethyl]butanoic acid] yielded a half-inhibitory concentration (IC50) of 1.4 nM.

Regarding `COc1cccc(C(=O)COc2ccc3cc(C(=O)CC(CCn4nnc5ccccc5c4=O)C(=O)O)sc3c2)c1` (racemic) [Example 124, (+/−)-4-{6-[2-(3-Methoxyphenyl)-2-oxoethoxy]-1-benzothiophen-2-yl}-4-oxo-2-[2-(4-oxo-1,2,3-benzotriazin-3(4H)-yl)ethyl]butanoic acid], the IC50 worked out at 0.95 nM.

Compound `CCCCOc1ccc2c(C(=O)CC(CCn3nnc4ccccc4c3=O)C(=O)O)coc2c1` (racemic) [Example 107, (+/−)-4-(6-Butoxy-1-benzofur-3-yl)-4-oxo-2-[2-(4-oxo-1,2,3-benzotriazin-3(4H)-yl)ethyl]butanoic acid] gave an IC50 of 0.61 nM.

Regarding `NC(=O)c1cccc(COc2ccc3oc(C(=O)CC(CCn4nnc5ccccc5c4=O)C(=O)O)cc3c2)c1` (single isomer, unassigned; (-)) [Example 33, (−)-4-{5-[(3-Carbamoylbenzyl)oxy]-1-benzofur-2-yl}-4-oxo-2-[2-(4-oxo-1,2,3-benzotriazin-3(4H)-yl)ethyl]butanoic acid], the half-maximal inhibitory concentration (IC50) is 350 nM.

`CCCCCCCOc1ccc2c(C(=O)CC(CCn3nnc4ccccc4c3=O)C(=O)O)coc2c1` (single isomer, unassigned; (+)) [Example 103, (+)-4-[6-(Heptyloxy)-1-benzofur-3-yl]-4-oxo-2-[2-(4-oxo-1,2,3-benzotriazin-3(4H)-yl)ethyl]butanoic acid acid] had a half-inhibitory concentration (IC50) of 0.23 nM.

Turning to `N#CCCCCOc1ccc2oc(C(=O)CC(CCn3nnc4ccccc4c3=O)C(=O)O)cc2c1` (racemic) [Example 53, (+/−)-4-[5-(4-Cyanobutoxy)-1-benzofur-2-yl]-4-oxo-2-[2-(4-oxo-1,2,3-benzotriazin-3(4H)-yl)ethyl]butanoic acid], inhibition was half-maximal at 2.9 nM (IC50).

As for `O=C(CC(CCn1nnc2ccccc2c1=O)C(=O)O)c1cc2cc(OCc3ccc(Cl)c(Cl)c3)ccc2o1` (single isomer, unassigned; (+)) [Example 27, (+)-4-{5-[(3,4-Dichlorobenzyl)oxy]-1-benzofur-2-yl}-4-oxo-2-[2-(4-oxo-1,2,3-benzotriazin-3(4H)-yl)ethyl]butanoic acid], it took 0.19 nM to reach half-maximal inhibition (IC50).

The compound `O=C(CC(CCn1nnc2ccccc2c1=O)C(=O)O)c1cc2cc(OCC3CCCC3)ccc2o1` (single isomer, unassigned; enantiomer 1) [Example 17, (−)-4-[5-(Cyclopentylmethoxy)-1-benzofur-2-yl]-4-oxo-2-[2-(4-oxo-1,2,3-benzotriazin-3(4H)-yl)ethyl]butanoic acid (enantiomer 1)] yielded an IC50 of 94 nM.

As for `O=C(CC(CCn1nnc2ccccc2c1=O)C(=O)O)c1cc2cc(OCCc3ccccc3)ccc2o1` (racemic) [Example 19, (+/−)-4-Oxo-2-[2-(4-oxo-1,2,3-benzotriazin-3(4H)-yl)ethyl]-4-[5-(2-phenylethoxy)-1-benzofur-2-yl]butanoic acid], the IC50 amounted to 4.7 nM.

`O=C(CC(CCn1nnc2ccccc2c1=O)C(=O)O)c1cc2cc(OCc3ccc4nonc4c3)ccc2o1` (racemic) [Example 36, (+/−)-4-[5-(2,1,3-Benzoxadiazol-5-ylmethoxy)-1-benzofur-2-yl]-4-oxo-2-[2-(4-oxo-1,2,3-benzotriazin-3(4H)-yl)ethyl]butanoic acid] returned an IC50 of 0.33 nM.

Compound `CCCCCOc1ccc2cc(C(=O)CC(CCn3nnc4ccccc4c3=O)C(=O)O)oc2c1` (single isomer, unassigned; (-)) [Example 56, (−)-4-Oxo-2-[2-(4-oxo-1,2,3-benzotriazin-3(4H)-yl)ethyl]-4-[6-(pentyloxy)-1-benzofur-2-yl]butanoic acid] showed an IC50 of 1400 nM.

`O=C(CC(CCn1nnc2ccccc2c1=O)C(=O)O)c1cc2cc(OCc3ccc(Cl)c(Cl)c3)ccc2o1` (single isomer, unassigned; (-)) [Example 26, (−)-4-{5-[(3,4-Dichlorobenzyl)oxy]-1-benzofur-2-yl}-4-oxo-2-[2-(4-oxo-1,2,3-benzotriazin-3(4H)-yl)ethyl]butanoic acid] returned an IC50 of 160 nM.

`O=C(CC(CCn1nnc2ccccc2c1=O)C(=O)O)c1coc2cc(OCCc3ccccc3)ccc12` (racemic) [Example 110, (+/−)-4-Oxo-2-[2-(4-oxo-1,2,3-benzotriazin-3(4H)-yl)ethyl]-4-[6-(2-phenylethoxy)-1-benzofur-3-yl]butanoic acid]: the IC50 turned out to be 0.54 nM.

Turning to `O=C(CC(CCn1nnc2ccccc2c1=O)C(=O)O)c1coc2cc(OCC3CCOCC3)ccc12` (single isomer, unassigned; (+)) [Example 96, (+)-4-Oxo-2-[2-(4-oxo-1,2,3-benzotriazin-3(4H)-yl)ethyl]-4-[6-(tetrahydro-2H-pyran-4-ylmethoxy)-1-benzofur-3-yl]butanoic acid], 0.81 nM corresponded to half-maximal inhibition (IC50).

With `O=C(CC(CCn1nnc2ccccc2c1=O)C(=O)O)c1cc2cc(OCCCc3ccc(C(F)(F)F)cc3)ccc2o1` (racemic) [Example 42, (+/−)-4-Oxo-2-[2-(4-oxo-1,2,3-benzotriazin-3(4H)-yl)ethyl]-4-(5-{3-[4-(trifluoromethyl)phenyl]propoxy}-1-benzofur-2-yl)butanoic acid], the IC50 came out at 3.2 nM.

`O=C(CC(CCn1nnc2ccccc2c1=O)C(=O)O)c1cc2ccc(OCC3CCO3)cc2s1` (racemic) [Example 119, (+/−)-4-{6-[Oxetan-2-ylmethoxy]-1-benzothiophen-2-yl}-4-oxo-2-[2-(4-oxo-1-benzotriazin-3(4H)-yl)ethyl]butanoic acid] registered a 50% inhibitory concentration (IC50) of 3.7 nM.

`O=C(CC(CCn1nnc2ccccc2c1=O)C(=O)O)c1cc2cc(OCC3CCCCC3)ccc2o1` (single isomer, unassigned; enantiomer 2) [Example 10, (+)-4-[5-(Cyclohexylmethoxy)-1-benzofur-2-yl]-4-oxo-2-[2-(4-oxo-1,2,3-benzotriazin-3(4H)-yl)ethyl]butanoic acid (enantiomer 2)] returned a half-maximal inhibitory concentration (IC50) of 0.62 nM.

Regarding `CCCCOc1ccc2cc(C(=O)CC(CCn3nnc4ccccc4c3=O)C(=O)O)oc2c1` (racemic) [Example 61, (+/−)-4-(6-Butoxy-1-benzofur-2-yl)-4-oxo-2-[2-(4-oxo-1,2,3-benzotriazin-3(4H)-yl)ethyl]butanoic acid], the concentration for half-maximal inhibition (IC50) amounted to 4.6 nM.
